Data published in ChEMBL document CHEMBL1201862, “PubChem BioAssay data set” (2004).
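Where inhibition never reached the appropriate level, the endpoint shown equals the highest concentration tested. Otherwise, values were interpolated linearly from a five-concentration, 48-hour dose response in 96-well plates. GI50 marks 50% less growth.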 Activity calls are given as the source filed them. Rule as the data show it: active = GI50 up to about 1.1 µM and inactive = higher.

Key:
Assay in all cases: DTP human tumour cell line panel, 48 h
HCT-116 = tested on: HCT-116
UACC-62 = tested on: UACC-62
M14 = tested on: M14
HOP-92 = tested on: HOP-92
SN12C = tested on: SN12C
MDA-N = tested on: MDA-N
NCI-H226 = tested on: NCI-H226
SK-MEL-2 = tested on: SK-MEL-2
T47D = tested on: T47D
LOX IMVI = tested on: LOX IMVI
ACHN = tested on: ACHN
SNB-75 = tested on: SNB-75
786-0 = tested on: 786-0
SW-620 = tested on: SW-620
OVCAR-5 = tested on: OVCAR-5
UO-31 = tested on: UO-31
SK-OV-3 = tested on: SK-OV-3
COLO 205 = tested on: COLO 205
SR = tested on: SR

Measured: GI50

Cc1ccc(/N=N/c2c(O)c3ccccc3[nH]c2=O)c(S(=O)(=O)N(C)C)c1
inactive: HCT-116 > 100 µM | UACC-62 > 100 µM | M14 > 100 µM | HOP-92 > 100 µM | SN12C > 100 µM | MDA-N > 100 µM | NCI-H226 > 100 µM | SK-MEL-2 > 100 µM | T47D > 100 µM | LOX IMVI > 100 µM | ACHN > 100 µM | SNB-75 > 100 µM | 786-0 > 100 µM | SW-620 > 100 µM | OVCAR-5 > 100 µM | UO-31 > 100 µM | SK-OV-3 > 100 µM | COLO 205 > 100 µM

CN1CCC/C1=C1\C(=O)c2cccn2C1=O
inactive: HCT-116 > 100 µM | UACC-62 > 100 µM | M14 > 100 µM | SR > 100 µM | SN12C > 100 µM | MDA-N > 100 µM | NCI-H226 > 100 µM | SK-MEL-2 > 100 µM | T47D > 100 µM | LOX IMVI > 100 µM | ACHN > 100 µM | SNB-75 > 100 µM | 786-0 > 100 µM | SW-620 > 100 µM | OVCAR-5 > 100 µM | UO-31 > 100 µM | SK-OV-3 > 100 µM | COLO 205 > 100 µM

CC(OC(=O)C(CC(=O)OC(C)(C)C)NC(=O)OC(C)(C)C)C(=O)OCc1ccccc1 (stereo not given)
inactive: HCT-116 > 100 µM | UACC-62 > 100 µM | M14 > 100 µM | SR > 100 µM | SN12C > 100 µM | MDA-N > 100 µM | NCI-H226 > 100 µM | SK-MEL-2 > 100 µM | T47D > 100 µM | LOX IMVI > 100 µM | ACHN > 100 µM | SNB-75 > 100 µM | 786-0 > 100 µM | SW-620 > 100 µM | OVCAR-5 > 100 µM | UO-31 > 100 µM | SK-OV-3 > 100 µM | COLO 205 > 100 µM

O=P1(C(O)c2ccccc2)N(Cc2ccccc2)[C@@H]2CCCC[C@H]2N1Cc1ccccc1 (stereo not given in full)
inactive: HCT-116 27.4 µM | UACC-62 30.7 µM | M14 24.8 µM | SR 24.3 µM | SN12C 20.9 µM | MDA-N 31.9 µM | NCI-H226 24.8 µM | SK-MEL-2 27 µM | T47D 21.9 µM | LOX IMVI 17.5 µM | ACHN 30.8 µM | SNB-75 18.4 µM | 786-0 20.8 µM | SW-620 33.9 µM | OVCAR-5 24.8 µM | UO-31 33 µM | SK-OV-3 58.2 µM | COLO 205 14.8 µM

CN1CCN(Cc2nc3c(s2)CCc2sccc2-3)CC1
inactive: HCT-116 62.5 µM | UACC-62 24.8 µM | M14 28.4 µM | SR 36.1 µM | SN12C > 100 µM | MDA-N 48.6 µM | NCI-H226 > 100 µM | SK-MEL-2 > 100 µM | T47D 41.6 µM | ACHN > 100 µM | SNB-75 75.7 µM | 786-0 95.3 µM | SW-620 > 100 µM | OVCAR-5 > 100 µM | UO-31 59.8 µM | SK-OV-3 > 100 µM | COLO 205 > 100 µM

N#CC(c1ccccc1)N(CCCCCCN(C(=O)c1ccccc1)C(C#N)c1ccccc1)C(=O)c1ccccc1 (stereo not given)
inactive: HCT-116 25.1 µM | UACC-62 26.3 µM | M14 41.2 µM | HOP-92 16.5 µM | SN12C 44.9 µM | MDA-N 45.1 µM | NCI-H226 28.6 µM | SK-MEL-2 23.6 µM | T47D 28.5 µM | LOX IMVI 29.3 µM | ACHN 38.4 µM | SNB-75 52.4 µM | 786-0 33.7 µM | SW-620 39.3 µM | OVCAR-5 > 100 µM | UO-31 18 µM | SK-OV-3 41.4 µM | COLO 205 18.1 µM

CC1CCCc2c(-c3ccc(Cl)cc3)nc(N)c(C#N)c21 (stereo not given)
inactive: HCT-116 22.3 µM | UACC-62 18.9 µM | M14 30 µM | SR 9.84 µM | SN12C 41.4 µM | MDA-N 24 µM | NCI-H226 18.4 µM | SK-MEL-2 18.4 µM | T47D 2.09 µM | LOX IMVI 24.2 µM | ACHN 38.5 µM | SNB-75 11.7 µM | 786-0 42.1 µM | SW-620 61.9 µM | OVCAR-5 43 µM | UO-31 21.6 µM | SK-OV-3 23.9 µM | COLO 205 23.2 µM

CN(C)CCCNC1=C(Cl)C(=O)c2c(O)ccc(O)c2C1=O
inactive: HCT-116 2.26 µM | UACC-62 1.59 µM | M14 1.51 µM | HOP-92 8.2 µM | SN12C 1.81 µM | MDA-N 1.85 µM | NCI-H226 > 10 µM | T47D 2.09 µM | LOX IMVI 1.67 µM | ACHN 6.1 µM | SNB-75 9.04 µM | 786-0 1.36 µM | SW-620 1.82 µM | OVCAR-5 1.59 µM | UO-31 6.04 µM | SK-OV-3 > 10 µM | COLO 205 1.49 µM

CC1(C)N=c2c(ncn2-c2ccccc2)=C(C(N)=O)N1
inactive: HCT-116 > 100 µM | UACC-62 > 100 µM | M14 > 100 µM | SR > 100 µM | SN12C > 100 µM | MDA-N > 100 µM | NCI-H226 > 100 µM | SK-MEL-2 > 100 µM | T47D > 100 µM | LOX IMVI > 100 µM | ACHN > 100 µM | SNB-75 > 100 µM | 786-0 > 100 µM | SW-620 > 100 µM | OVCAR-5 > 100 µM | SK-OV-3 > 100 µM | COLO 205 > 100 µM

CCOc1ccc2nc3nc(O)nc(C)c3c(NC(C)(CO)CO)c2c1
inactive: HCT-116 > 100 µM | UACC-62 > 100 µM | M14 > 100 µM | HOP-92 > 100 µM | SN12C > 100 µM | MDA-N > 100 µM | NCI-H226 > 100 µM | SK-MEL-2 > 100 µM | T47D > 100 µM | LOX IMVI > 100 µM | ACHN > 100 µM | SNB-75 > 100 µM | 786-0 > 100 µM | SW-620 > 100 µM | OVCAR-5 > 100 µM | UO-31 > 100 µM | SK-OV-3 > 100 µM | COLO 205 > 100 µM

O=C(O)c1cc(C(=O)C(=O)c2cc(C(=O)O)c(O)c3ccccc23)c2ccccc2c1O
inactive: HCT-116 > 100 µM | UACC-62 > 100 µM | M14 > 100 µM | HOP-92 > 100 µM | SN12C > 100 µM | MDA-N > 100 µM | NCI-H226 > 100 µM | SK-MEL-2 > 100 µM | T47D > 100 µM | LOX IMVI > 100 µM | ACHN > 100 µM | SNB-75 > 100 µM | 786-0 > 100 µM | SW-620 > 100 µM | OVCAR-5 > 100 µM | UO-31 > 100 µM | SK-OV-3 > 100 µM | COLO 205 > 100 µM
